Measured values from ChEMBL document CHEMBL2150939, “Synthesis and cytotoxicity of novel ursolic acid derivatives containing an acyl piperazine moiety” (Eur J Med Chem, 2012).
Activity calls are given as the source filed them. The calls are words filed in the database; no cut-off is given here.

Legend:
MGC-803 [1] = experiment: Induction of apoptosis in human MGC803 cells assessed as early apoptotic cells at 5 uM after 24 hrs by acridine orange/ethidium bromide staining; assay type: functional, cell-based
Bcap37 [2] = experiment: Antiproliferative activity against human Bcap37 cells after 72 hrs by MTT assay; assay type: functional, cell-based; conditions: Bcap37, 72 h, read-out: IC50
MGC-803 [3] = experiment: Induction of apoptosis in human MGC803 cells assessed as early and late apoptotic level at 10 uM after 12 hrs by annexinV/FITC-PI staining-based flow cytometric analysis; assay type: functional
MGC-803 [4] = experiment: Induction of apoptosis in human MGC803 cells assessed as late apoptotic cells at 5 uM after 48 hrs by acridine orange/ethidium bromide staining; assay type: functional, cell-based
[5] = Growth inhibition of mouse NIH/3T3 cells at 10 uM after 72 hrs by MTT assay; assay type: cell-based, NIH3T3; conditions: read-out: GI
MGC-803 [6] = experiment: Growth inhibition of human MGC803 cells at 10 uM after 72 hrs by MTT assay; assay type: functional; conditions: MGC-803, 72 h, read-out: GI
MGC-803 [7] = experiment: Induction of apoptosis in human MGC803 cells at 10 uM by annexinV/FITC-PI staining-based flow cytometric analysis; assay type: functional, cell-based; conditions: TDE = time-dependent effect
MGC-803 [8] = experiment: Induction of apoptosis in human MGC803 cells assessed as early and late apoptotic level at 10 uM after 36 hrs by annexinV/FITC-PI staining-based flow cytometric analysis; assay type: functional
MGC-803 [9] = experiment: Induction of apoptosis in human MGC803 cells assessed as cell budding at 5 uM up to 48 hrs by acridine orange/ethidium bromide staining; assay type: functional, cell-based
MGC-803 [10] = experiment: Antiproliferative activity against human MGC803 cells after 72 hrs by MTT assay; assay type: functional, cell-based; conditions: MGC-803, 72 h
MGC-803 [11] = experiment: Induction of apoptosis in human MGC803 cells assessed as early and late apoptotic level at 10 uM after 24 hrs by annexinV/FITC-PI staining-based flow cytometric analysis; assay type: functional
Bcap37 [12] = experiment: Growth inhibition of human Bcap37 cells at 10 uM after 72 hrs by MTT assay; assay type: functional; conditions: Bcap37, 72 h, read-out: GI
MGC-803 [13] = experiment: Induction of apoptosis in human MGC803 cells assessed as pyknosis at 5 uM after 12 to 48 hrs by acridine orange/ethidium bromide staining; assay type: functional, cell-based
MGC-803 [14] = experiment: Induction of apoptosis in human MGC803 cells assessed as condensed chromatin at 5 uM after 12 to 48 hrs by Hoechst 33258 staining; assay type: functional, cell-based
MGC-803 [15] = experiment: Induction of apoptosis in human MGC803 cells assessed as membrane blebbing at 5 uM after 12 to 48 hrs by acridine orange/ethidium bromide staining; assay type: functional, cell-based
MGC-803 [16] = experiment: Induction of apoptosis in human MGC803 cells assessed as DNA fragmentation at 2.5 to 10 uM after 24 hrs by TUNEL assay; assay type: functional, cell-based
MGC-803 [17] = experiment: Induction of apoptosis in human MGC803 cells assessed as cell budding at 5 uM at 24 hrs by acridine orange/ethidium bromide staining
MGC-803 [18] = experiment: Induction of apoptosis in human MGC803 cells assessed as condensed chromatin at 10 uM after 48 hrs by Hoechst 33258 staining; assay type: functional, cell-based
MGC-803 [19] = experiment: Induction of apoptosis in human MGC803 cells assessed as DNA fragmentation at 10 uM after 24 hrs by TUNEL assay; assay type: functional, cell-based
MGC-803 [20] = experiment: Induction of apoptosis in human MGC803 cells assessed as cell budding at 10 uM after 48 hrs by acridine orange/ethidium bromide staining; assay type: functional, cell-based
MGC-803 [21] = experiment: Induction of apoptosis in human MGC803 cells assessed as pyknosis at 10 uM after 48 hrs by acridine orange/ethidium bromide staining; assay type: functional, cell-based
MGC-803 [22] = experiment: Induction of apoptosis in human MGC803 cells assessed as membrane blebbing at 10 uM after 48 hrs by acridine orange/ethidium bromide staining; assay type: functional, cell-based

Q: With `C[C@H]1[C@H](C)CC[C@]2(C(=O)OCCN3CCN(C(=O)c4c(Cl)cccc4Cl)CC3)CC[C@]3(C)C(=CC[C@@H]4[C@@]5(C)CC[C@H](O)C(C)(C)[C@@H]5CC[C@]43C)[C@H]12` as the compound, how does the Activity (MGC-803 [1]) read?
A: The Activity was “Active”.

Q: What about the IC50 (Bcap37 [2]) of the same compound?
A: Its IC50 is 9.24 µM.

Q: What about the Activity (MGC-803 [3]) of the same compound?
A: The Activity was 23.57%.

Q: What about the Activity (MGC-803 [4]) of the same compound?
A: The Activity was “Active”.

Q: And the inhibition at 72 h, 10 µM [5]?
A: Its inhibition at 72 h, 10 µM is 32.1%.

Q: And the inhibition of growth at 10 µM (MGC-803 [6])?
A: The inhibition of growth at 10 µM was 95.6%.

Q: What about the Activity (MGC-803 [7]) of the same compound?
A: The Activity was “tde”.

Q: And the Activity (MGC-803 [8])?
A: The Activity was 33.35%.

Q: What about the Activity (MGC-803 [9]) of the same compound?
A: Its Activity is “Active”.

Q: What about the IC50 (MGC-803 [10]) of the same compound?
A: Its IC50 is 2.5 µM.

Q: What about the Activity (MGC-803 [11]) of the same compound?
A: Its Activity is 28.01%.

Q: And the inhibition of growth at 10 µM (Bcap37 [12])?
A: The inhibition of growth at 10 µM was 76%.

Q: And the Activity (MGC-803 [13])?
A: The Activity was “Active”.

Q: What about the Activity (MGC-803 [14]) of the same compound?
A: The Activity was “Active”.

Q: What about the Activity (MGC-803 [15]) of the same compound?
A: Its Activity is “Active”.

Q: And the Activity (MGC-803 [16])?
A: The Activity was “Active”.

Q: What about the Activity (MGC-803 [17]) of the same compound?
A: The Activity was “Active”.

Q: With `C[C@H]1[C@H](C)CC[C@]2(C(=O)O)CC[C@]3(C)C(=CC[C@@H]4[C@@]5(C)CC[C@H](O)C(C)(C)[C@@H]5CC[C@]43C)[C@H]12` [URSOLIC ACID] as the compound, how does the IC50 (Bcap37 [2]) read?
A: The IC50 was 28.7 µM.

Q: What about the inhibition at 72 h, 10 µM [5] of the same compound?
A: Its inhibition at 72 h, 10 µM is 14%.

Q: And the inhibition of growth at 10 µM (MGC-803 [6])?
A: The inhibition of growth at 10 µM was 28.9%.

Q: And the IC50 (MGC-803 [10])?
A: Its IC50 is 24.3 µM.

Q: And the inhibition of growth at 10 µM (Bcap37 [12])?
A: The inhibition of growth at 10 µM was 11.9%.

Q: And the Activity (MGC-803 [18])?
A: Its Activity is “Active”.

Q: And the Activity (MGC-803 [19])?
A: The Activity was “Active”.

Q: And the Activity (MGC-803 [20])?
A: The Activity was “Active”.

Q: What about the Activity (MGC-803 [21]) of the same compound?
A: Its Activity is “Active”.

Q: What about the Activity (MGC-803 [22]) of the same compound?
A: The Activity was “Active”.
